Laboratory results taken from patent US20160090571A1, “CULTURE MEDIA AND METHODS FOR CULTURING MICROORGANISMS” (Orior, LLC, priority 2014, published 2016).

System: microorganism associated with Morgellons disease
Test: Drug sensitivity / growth inhibition testing of the cultured microorganism
Assay type: cell-based
Conditions: for inhibitory effect on organism growth: antibiotic added to solution
Source text: In other studies, Itraconazole and Posaconazole were each added to the culture medium followed by the organism.

Molecule | inhibitory effect on organism growth | inhibition of growth (antifungal agent added to the culture medium followed by the organism)
CC1(C)S[C@@H]2[C@H](NC(=O)[C@H](N)c3ccccc3)C(=O)N2[C@H]1C(=O)O [Ampicillin] | no inhibitory effect | –
O=C(O)c1cn(C2CC2)c2cc(N3CCNCC3)c(F)cc2c1=O [Ciprofloxacin] | no inhibitory effect | –
CC[C@H]1OC(=O)[C@H](C)[C@@H](O[C@H]2C[C@@](C)(OC)[C@@H](O)[C@H](C)O2)[C@H](C)[C@@H](O[C@@H]2O[C@H](C)C[C@H](N(C)C)[C@H]2O)[C@](C)(O)C[C@@H](C)C(=O)[C@H](C)[C@@H](O)[C@]1(C)O [Erythromycin] | no inhibitory effect | –
CC[C@@H]([C@H](C)O)n1ncn(-c2ccc(N3CCN(c4ccc(OC[C@@H]5CO[C@@](Cn6cncn6)(c6ccc(F)cc6F)C5)cc4)CC3)cc2)c1=O [Posaconazole] | – | Neither antifungal agent was shown to inhibit growth
CN(C)[C@@H]1C(O)=C(C(N)=O)C(=O)[C@@]2(O)C(O)=C3C(=O)c4c(O)cccc4[C@@](C)(O)[C@H]3C[C@@H]12 [Tetracycline] | no inhibitory effect | –
Neomycin | no inhibitory effect | –
Penicillin | no inhibitory effect | –
